In patent US9862761B2, “Composition and method for preventing or treating a tauopathy” (The Board of Trustees of the University of Illinois, priority 2009, dated 2018):
Like-named read-outs stand apart in the source and are kept apart here. Values belong to the molecule of their own block, whether it stands above or below them. Square brackets hold non-standard residues; d marks the D form. Ends that are not written are not given here. pS = N[C@@H](COP(=O)(O)O)C(=O)O

Legend:
[1] = tested on: endogenous squid microtubules; test: Microtubule-binding (sedimentation) assay; settings: 5 μM tau construct, squid optic lobe cytosol
[2] = tested on: fast axonal transport (FAT) in isolated squid axoplasm; test: Squid axoplasm motility assays (vesicle motility); format: cell-based, Loligo pealii; settings: for prevention of 2-18 peptide-induced anterograde FAT inhibition: co-perfused with 2-18 peptide; for prevention of 2-18 peptide-induced anterograde FAT inhibition / prevention of 6D tau-mediated anterograde FAT inhibition: I-2 50 nM; for prevention of 6D tau-mediated anterograde FAT inhibition: co-perfused with 6D tau, okadaic acid 200 nM; for effect on FAT (axonal transport): perfused alone into squid axoplasm (tau 2 μM; ING-135 100 nM); for effect on retrograde FAT rates / effect on anterograde FAT rates: perfused into isolated squid axoplasm; for effect on anterograde FAT rates: 2 μM
[3] = tested on: fast axonal transport (FAT) in isolated squid axoplasm; settings: cited from earlier work
[4] = tested on: kinesin-1 associated with vesicles; test: Motor proteins on membrane vesicle fractions purified from squid axoplasms; settings: 40 minutes incubation
squid microtubules = test: Microtubule morphology at axoplasm periphery after perfusion; format: cell-based; settings: 2 μM perfused into axoplasm
Excerpt: Microtubule rigidity is increased when tau binds to the microtubule surface, and this effect is observable even at low, nonsaturating tau concentrations (Feigner, et al. (1997) J. Cell Biol. 138:1067-1075; Morfini, et al. (2007) supra). As an additional indicator of hTau40's ability to interact with squid microtubules, axoplasm was perfused with tau and the morphology of microtubules at the axoplasm periphery was examined.

[5] = Tau polymerization with arachidonic acid, electron microscopy; format: physicochemical; settings: 4 μM tau, 75 μM arachidonic acid
Description: Tau polymerization was induced using AA according to known methods (King, et al. (1999) Biochemistry 38:14851-14859), except that KCl was substituted for NaCl in the polymerization buffer. […] Briefly, tau protein (4 μM) was incubated at room temperature in reaction buffer (50 mM HEPES, pH 7.6, 50 mM KCl, 5 mM DTT) in the presence of 75 μM AA (in ethanol vehicle). Samples of soluble tau were prepared for perfusion in the same manner, except that arachidonic acid was excluded from the polymerization buffer. Control mixtures containing AA but lacking tau were prepared in parallel. Final ethanol concentration in all samples was 3.8%.
Polymerization reactions were allowed to proceed for 6 hours, fixed with 2% glutaraldehyde, spotted onto 300 mesh formvar/carbon-coated copper grids (Electron Microscopy Sciences, Hatfield, Pa.), and negatively stained with 2% uranyl acetate (King, et al. (1999) supra). […]
To determine whether these domains are involved in FAT inhibition, two tau constructs were assayed, Δ2-18 and 1-421, containing deletions at the extreme amino- and carboxy-termini, respectively. […] Therefore, the formation of tau filaments under these experimental conditions was assessed by electron microscopic analysis.

PP2A = PP2A (Homo sapiens, UniProt P67775); settings: even at micromolar concentrations; cited from earlier work
fyn kinase = molecular target: T1, fyn kinase (Homo sapiens, UniProt P06241); test: In vitro phosphorylation of tau by fyn kinase; format: biochemical; settings: compared to wild-type tau; 1 μM tau
T1 construct: purchased Millipore
Description: Samples were heated to 60° C. for 5 minutes and separated on 10% acrylamide gels via SDS-PAGE. The proteins were transferred to nitrocellulose membranes, blocked in 2% non-fat dry milk Tris-buffered saline (NFDM-TBS; Tris 50 mM, NaCl 150 mM, pH 7.4). The membranes were incubated in primary antibodies (R1-1:300,000 and 9G3-1:8000) overnight at 4° C. The next day, the membranes were rinsed in TBS+0.1% TWEEN 20 and then incubated in the appropriate secondary antibody (1:5000; diluted in 2% NFDM-TBS). Immunoreactivity was visualized using ECL solution and the level of reactivity was quantified by measuring the optical density of immunoreactive bands with ImageJ software (v1.41, NIH). The average pixel intensities of the main tau bands were measured. Data are expressed as the ratio of 9G3 intensity to R1 intensity (error bars—s.e.m.).
Phosphorylation was carried out at 32° C. for […]. Samples were diluted 1:1 in 2× Laemmli buffer at 0, 10, 20, 40, and 60 minutes to stop the reaction. Samples were stored at −20° C. until used for immunoblotting.
Fyn kinase is a non-receptor tyrosine kinase known to phosphorylate tau at Tyr18 and phosphoTyrl8 (pTyr18) and is found in tau inclusions of AD brains (Lee, et al. (2004) supra). Phosphorylation at Tyr18 by fyn kinase prevents tau-mediated inhibition of anterograde FAT in squid axoplasm.

[6] = coperfused with hTau40 filaments (2 μM), SB203580 5 μM, CREBpp 0.5 mM, ING-135 100 nM, okadaic acid 100 nM, inhibitor-2 50 nM

T1 sequence (P06241 whole entry): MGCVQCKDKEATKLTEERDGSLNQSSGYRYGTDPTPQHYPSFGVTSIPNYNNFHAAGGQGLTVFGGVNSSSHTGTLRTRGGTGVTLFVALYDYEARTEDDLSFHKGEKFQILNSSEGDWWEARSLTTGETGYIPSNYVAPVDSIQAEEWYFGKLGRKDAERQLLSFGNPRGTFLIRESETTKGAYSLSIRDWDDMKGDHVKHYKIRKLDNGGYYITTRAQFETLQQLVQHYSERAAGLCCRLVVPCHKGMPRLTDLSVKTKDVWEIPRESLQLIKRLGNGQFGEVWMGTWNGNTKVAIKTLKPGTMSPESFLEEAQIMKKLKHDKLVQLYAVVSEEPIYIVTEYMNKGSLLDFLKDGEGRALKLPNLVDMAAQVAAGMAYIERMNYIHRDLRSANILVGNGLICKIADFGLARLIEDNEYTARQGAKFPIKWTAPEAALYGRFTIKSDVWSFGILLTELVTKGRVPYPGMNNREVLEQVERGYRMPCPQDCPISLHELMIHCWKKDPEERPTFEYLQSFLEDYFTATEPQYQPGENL
PP2A, sequence (P67775 whole entry): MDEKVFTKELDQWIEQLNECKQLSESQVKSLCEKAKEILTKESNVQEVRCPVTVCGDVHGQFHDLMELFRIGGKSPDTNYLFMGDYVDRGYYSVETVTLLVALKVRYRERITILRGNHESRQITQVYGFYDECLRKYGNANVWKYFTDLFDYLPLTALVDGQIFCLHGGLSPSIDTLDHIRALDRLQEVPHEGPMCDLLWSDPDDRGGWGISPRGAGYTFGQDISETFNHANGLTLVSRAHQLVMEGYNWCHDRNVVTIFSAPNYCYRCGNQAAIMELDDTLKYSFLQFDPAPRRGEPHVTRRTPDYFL

- sedimentation with taxol-assembled squid microtubules (supernatant vs pellet) [1]: remained in the supernatant fraction
Molecule: K23: tau construct lacking both alternatively spliced N-terminal exons and all four MTBRs [reference compound]

Molecule: Cn1cc(C2=C(c3coc4ccccc34)C(=O)NC2=O)c2cc(Br)ccc21 [ING-135, reference compound]
- prevention of 2-18 peptide-induced anterograde FAT inhibition ([2]; ING-135 100 nM): completely prevented
- prevention of 6D tau-mediated anterograde FAT inhibition ([2]; ING-135 100 nM): completely blocked
- block of tau filament-induced inhibition of anterograde FAT [2, 6]: blocked
- effect on FAT (axonal transport) [2]: had no effect

Molecule: KRREILSRRPpSYR (KRREILSRRP[pS]YR) [CREBpp, reference compound]
- effect on FAT, perfused alone ([3]; CREBpp alone in squid axoplasm): has no effect
- block of effects of 1-421 tau filaments on FAT ([2]; coperfused with 1-421 tau filaments): also blocked
- block of tau filament-induced inhibition of anterograde FAT [2, 6]: blocked

Molecule: hTau40 filaments: recombinant hTau40 polymerized into filaments with arachidonic acid
- levels of dynein intermediate chain on vesicles [4]: unaffected
- effect on FAT (axonal transport) [2]: inhibition
- effect on retrograde FAT rates [2]: remained unaffected
- effect on anterograde FAT rates [2]: inhibited
- effect on anterograde FAT rates ([2]; listed as hTau40 F): significantly reduced
- effect on anterograde FAT rates ([2]; listed as tau filaments): inhibit
- morphology of peripheral microtubules (squid microtubules): did not produce changes in microtubule morphology

Molecule: AEPRQEFEVMEDHAGTY [2-18 peptide]
- effect on anterograde FAT rates [2]: induced a significant inhibition
- effect on anterograde FAT rates ([2]; listed as PAD): inhibit

Molecule: active GSK-3β: recombinant, active GSK-3β from Sigma [reference compound]
- levels of dynein intermediate chain on vesicles [4]: unaffected

Molecule: monomeric hTau40: full-length tau, longest isoform in adult human brain, 441 amino acids, soluble monomer
- effect on FAT (axonal transport) ([2]; listed as full-length wild-type tau monomers): had no effect
- effect on FAT (axonal transport) ([2]; listed as soluble tau): does not affect
- effect on retrograde FAT rates [2]: no effect
- effect on anterograde FAT rates [2]: no effect
- morphology of peripheral microtubules (squid microtubules): caused peripheral microtubules to acquire a straight, rigid appearance
- filament formation under axoplasm perfusion buffer conditions [5]: form morphologically indistinguishable filaments
- sedimentation with taxol-assembled squid microtubules (supernatant vs pellet) [1]: depleted from the supernatant fraction and found in association with the microtubule-enriched pellet fraction

Molecule: inhibitor-2 [reference compound]
- effect on PP2A (PP2A): has no effect
- prevention of 2-18 peptide-induced anterograde FAT inhibition ([2]; ING-135 100 nM): completely prevented
- prevention of 6D tau-mediated anterograde FAT inhibition ([2]; ING-135 100 nM): complete prevention
- block of tau filament-induced inhibition of anterograde FAT [2, 6]: prevented FAT inhibition

Molecule: C[S+]([O-])c1ccc(-c2nc(-c3ccncc3)c(-c3ccc(F)cc3)[nH]2)cc1 (centres unmarked) [SB203580, reference compound]
- block of tau filament-induced inhibition of anterograde FAT [2]: did not block

Molecule: C=C1[C@@H](O)[C@@H]2O[C@]3(CC[C@H](/C=C/[C@@H](C)[C@@H]4CC(C)=C[C@@]5(O[C@H](C[C@@](C)(O)C(=O)O)CC[C@H]5O)O4)O3)CC[C@H]2O[C@@H]1[C@@H](O)C[C@H](C)[C@H]1O[C@@]2(CCCCO2)CC[C@H]1C [okadaic acid, reference compound]
- effect on FAT, perfused alone ([3]; okadaic acid alone, concentrations up to 1 μM): have no effect
- prevention of 6D tau-mediated anterograde FAT inhibition ([2]; ING-135 100 nM): abolished
- prevention of 6P tau-mediated anterograde FAT inhibition ([2]; co-perfused with 6P tau): The same effect was noted
- block of tau filament-induced inhibition of anterograde FAT [2, 6]: blocked

- maximal level of phosphorylation at Tyr18 by fyn kinase (fyn kinase): lower
- rate of phosphorylation at Tyr18 by fyn kinase (fyn kinase): slower
Molecule: AT8 tau: tau with Ser199, Ser202, Thr205 mutated to glutamic acid, AT8 pseudophosphorylated mutant
- effect on retrograde FAT rates [2]: unaffected
- effect on anterograde FAT rates [2]: significantly reduced
